Each structure is given as a SMILES string.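 Interpolation was linear, between the two tested concentrations surrounding the appropriate level; five concentrations were tested over 48 hours in 96-well plates. GI50 marks 50% less growth. TGI is the concentration that stops growth completely.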

Test systems include BT-549 breast; DU-145 prostate; MCF7 breast; MDA-MB-231 breast; MDA-MB-435; NCI/ADR-RES ovarian; T-47D breast.
Common to all, as to assay: inhibition of tumour cell growth, NCI panel, 48 h

With `CC(=O)c1c[nH]c2ccc(-c3ccnc(Nc4ccc(NC(=O)c5cccc(F)c5)c(CN5CCOCC5)c4)n3)cc12`, the GI50 in the assay with BT-549 breast is 0.208 µM; in the assay with DU-145 prostate it was 0.185 µM; with MCF7 breast, 0.149 µM; with MDA-MB-231 breast, 0.177 µM; with MDA-MB-435, 0.204 µM; in the assay on NCI/ADR-RES ovarian, 0.273 µM. The GI50 in the assay on T-47D breast was 0.223 µM. Also, the TGI is 3.97 µM in the assay on BT-549 breast; above 100 µM in the assay with DU-145 prostate; 1.7 µM in the assay on MCF7 breast; 1.3 µM in the assay with MDA-MB-231 breast; 1.47 µM in the assay with MDA-MB-435; 4.35 µM in the assay on NCI/ADR-RES ovarian. In the assay on T-47D breast, the TGI was determined as 5.45 µM.

In the case of `NS(=O)(=O)OC[C@H]1O[C@@H](n2cnc3c(N[C@H]4CCc5ccccc54)ncnc32)[C@H](O)[C@@H]1O`, the GI50 in the assay with BT-549 breast is 0.0298 µM; with DU-145 prostate, 0.0838 µM; in the assay on MCF7 breast, 0.0736 µM; in the assay with MDA-MB-231 breast it was 0.47 µM; in the assay on MDA-MB-435, 0.114 µM; in the assay with NCI/ADR-RES ovarian it was 5.05 µM. Besides, in the assay on T-47D breast, the GI50 was 0.156 µM. The TGI in the assay with BT-549 breast was 0.081 µM; with DU-145 prostate, 1.36 µM; in the assay on MCF7 breast it was above 100 µM; in the assay with MDA-MB-231 breast it was 2.92 µM; in the assay with MDA-MB-435, 0.351 µM; in the assay with NCI/ADR-RES ovarian, above 100 µM. The TGI with T-47D breast came out at 1.41 µM.

Regarding `CN1CCN(c2nc(NCCNc3ccnc4cc(Cl)ccc34)c3ccccc3n2)CC1`, the GI50 in the assay with BT-549 breast is 3.49 µM; in the assay with MCF7 breast, 1 µM; in the assay with MDA-MB-231 breast, 1.37 µM; in the assay on MDA-MB-435 it was 1.85 µM; in the assay with NCI/ADR-RES ovarian, 16 µM; in the assay with T-47D breast, 1.94 µM. Moreover, the TGI in the assay with BT-549 breast was 12.8 µM; with MCF7 breast it was 13.9 µM; in the assay on MDA-MB-231 breast it was 3.14 µM; with MDA-MB-435, 3.61 µM; in the assay with NCI/ADR-RES ovarian it was 37 µM; with T-47D breast, 4.79 µM.

As for `O=C1C=Cc2cc3ccccc3c3cccc1c23`, the GI50 was 9.66 µM in the assay on BT-549 breast; 9.53 µM with DU-145 prostate; 5.26 µM in the assay on MCF7 breast; 4.72 µM in the assay on MDA-MB-231 breast; 16.3 µM in the assay with MDA-MB-435; 3.33 µM in the assay on NCI/ADR-RES ovarian. For the same molecule, the GI50 in the assay on T-47D breast is 21.2 µM. In addition, the TGI is 51.9 µM with BT-549 breast; above 100 µM with DU-145 prostate; 37.7 µM with MCF7 breast; 29 µM in the assay with MDA-MB-231 breast; 70.7 µM in the assay with MDA-MB-435; 19.2 µM with NCI/ADR-RES ovarian. This molecule also displayed a TGI in the assay on T-47D breast above 100 µM.

Consider `N=C(N)c1ccc(-c2ccc(-c3ccco3)o2)cc1`, for which the GI50 in the assay on BT-549 breast was 5.9 µM; with DU-145 prostate, 6.25 µM; in the assay with MCF7 breast, 2.08 µM; with MDA-MB-231 breast, 2.75 µM; in the assay on MDA-MB-435, 1.83 µM; with NCI/ADR-RES ovarian it was 10.1 µM. In addition, the GI50 with T-47D breast is 2.92 µM. The TGI came out at 19.8 µM in the assay with BT-549 breast; 19 µM in the assay with DU-145 prostate; 14.3 µM in the assay on MCF7 breast; 7.75 µM in the assay with MDA-MB-231 breast; 4.03 µM in the assay on MDA-MB-435; 28.5 µM with NCI/ADR-RES ovarian. In the assay with T-47D breast, this molecule registered a TGI of 12.7 µM.

Turning to `N#CC1=C(N)NC(=S)NC1c1ccc(-c2ccc(-c3nc4ccccc4s3)cc2)o1` (centres undefined), the GI50 was 21.7 µM in the assay with BT-549 breast; 42.3 µM in the assay on DU-145 prostate; 9.71 µM with MCF7 breast; 16.3 µM in the assay on MDA-MB-231 breast; 39.1 µM in the assay on MDA-MB-435; above 50 µM in the assay with NCI/ADR-RES ovarian. Moreover, the GI50 with T-47D breast is 43.2 µM. In addition, the TGI in the assay with BT-549 breast, in the assay with DU-145 prostate, in the assay with MCF7 breast, in the assay with MDA-MB-231 breast, in the assay with MDA-MB-435 and with NCI/ADR-RES ovarian was above 50 µM in each case. In the assay with T-47D breast, this molecule yielded a TGI above 50 µM.

Turning to `Cc1ccc(NC(=O)C(=O)C2C(=O)C3=C(CC2(C)C)NC2C=CC=CC2S3)c(C)c1` (centres undefined), the TGI with BT-549 breast, with DU-145 prostate, with MCF7 breast, with MDA-MB-231 breast, in the assay on MDA-MB-435 and with NCI/ADR-RES ovarian was above 100 µM throughout.

With `COc1cc2c(cc1OC)[C@@H]1[C@H](C2=O)c2ccc([N+](=O)[O-])cc2C(=O)N1CCCBr`, the GI50 in the assay on BT-549 breast was 1.96 µM; in the assay with DU-145 prostate, 0.553 µM; in the assay on MCF7 breast, below 0.01 µM; with MDA-MB-231 breast it was 1.45 µM; in the assay with T-47D breast it was below 0.01 µM. The TGI in the assay on BT-549 breast is 23.9 µM; in the assay with DU-145 prostate, above 20.4 µM; in the assay with MCF7 breast, 0.284 µM; with MDA-MB-231 breast it was 6.61 µM; in the assay on NCI/ADR-RES ovarian it was 9.93 µM; in the assay on T-47D breast, above 100 µM.

For the molecule `COc1cc(OC)cc(-c2n[nH]nc2-c2ccc3c(c2)OCO3)c1`, the GI50 in the assay on DU-145 prostate is 0.346 µM; in the assay on MCF7 breast, 0.0768 µM; in the assay on MDA-MB-231 breast, 0.529 µM; with NCI/ADR-RES ovarian, 0.0849 µM. Also, the TGI in the assay with DU-145 prostate was above 100 µM; in the assay on MCF7 breast, above 100 µM; with MDA-MB-231 breast it was 31.5 µM; in the assay with NCI/ADR-RES ovarian, 24 µM.

On to `CCSc1sc(-c2ccc(C)cc2)nc1[P+](c1ccccc1)(c1ccccc1)c1ccccc1`, for which the GI50 in the assay on BT-549 breast is 0.295 µM; in the assay on DU-145 prostate, 0.346 µM; in the assay with MDA-MB-231 breast it was 0.259 µM; with MDA-MB-435 it was 0.268 µM; in the assay with T-47D breast it was 0.0863 µM. Moreover, the TGI in the assay with BT-549 breast came to 1.32 µM; in the assay with DU-145 prostate, 1.35 µM; in the assay on MDA-MB-231 breast, 1.14 µM; with MDA-MB-435 it was 0.801 µM; in the assay with T-47D breast it was 1.27 µM.

Take `COc1ccc(-c2ccc(/C=N/n3cnn(CN4CCN(C)CC4)c3=S)o2)c([N+](=O)[O-])c1`: the GI50 in the assay with BT-549 breast was 27.5 µM; with DU-145 prostate it was 38.1 µM; in the assay on MCF7 breast, 28.7 µM; in the assay on MDA-MB-231 breast it was 25.3 µM; with MDA-MB-435, 30.4 µM; in the assay with T-47D breast, 23.1 µM. In addition, the TGI in the assay with BT-549 breast is 91.8 µM; in the assay on DU-145 prostate, above 100 µM; in the assay with MCF7 breast, 97.4 µM; in the assay on MDA-MB-231 breast, 77.1 µM; in the assay with MDA-MB-435 it was 63.1 µM; with T-47D breast, 54.3 µM.

These data come from PubChem BioAssay (NCI).
